From patent US8916605B2, “Compounds and methods for treating cancer and viral infections” (priority 2009, dated 2014)

How the values were obtained:
[1] = tested on: Influenza A (strain A/PR/8/34); assay: Anti-influenza cytopathic effect (CPE) assay in MDCK cells, prophylactic regimen (Example 7); type: cell-based; parameters: key to CPE score: 1: Complete monolayer with few gaps or dead cells; 2: Some gaps in the monolayer; dead cells more evident; 3: Increasing number of gaps in the monolayer concurrent with dead cells; 4: Gaps widely distributed throughout the monolayer and of increasing size; 5: Large holes forming as smaller gaps merge; copious dead cells evident; 6: Monolayer integrity lost. Small islands of attached cells amid predominantly dead cells; settings: for CPE score: Influenza A, MDCK
[2] = tested on: all three transformed neuronal cell lines (IMR32, NG108, NSC34); assay: MTT (CIMA) cell proliferation assay (Example 4); settings: 72 h post-treatment; 0.5-250 μg/ml
Procedure: (§5) Compound preparation: Stock solutions of test compounds were prepared in dimethylsulfoxide (DMSO) at 250 mg/ml. Working concentrations of 10 mg/ml were subsequently prepared from the stock solution and stored in 50 μl aliquots at −20° C. until used.
(§6) Cells and cell culture: Three classes of cells were evaluated: 1) neuroblastoma cells, 2) neuroglioma cells, and 3) non-transformed human neurons (see below). All cells were maintained in appropriate culture medium supplemented with 10% fetal calf serum (FCS) and antibiotics in a humidified, 5% CO2 environment. Cells were passaged as required by trypsinization.
(§7) Assay conditions: The effects of the test compounds were assessed following acute and chronic exposure conditions. […] Each compound was evaluated over a broad range of concentrations (0, 0.5, 1, 5, 10, 50, 100 and 250 μg/ml) with cells treated with equivalent concentrations of vehicle (DMSO) serving as controls.
(§8) Cell proliferation assay: Cell proliferation was assessed using a standard colorimetric indicator of metabolic activity (CIMA) assay. In this assay, the reduction of yellow tetrazolium salt (MTT) to purple formazan by mitochondrial reductase enzymes in viable cells was evaluated as a measure of metabolic activity to determine the extent of cell proliferation within a culture. […]

MDCK cells = assay: Cytotoxicity assay (MTT/CIMA) in MDCK cells (Example 7)
NSC34 motor neurons = assay: MTT (CIMA) cell proliferation assay (Example 4); settings: 72 h post-treatment
Procedure: as §5, §6, §7, §8

U373 astroglioma cells [3] = assay: Long term exposure, tetrazole reduction (CIMA) proliferation assay (Example 6); type: cell-based
Procedure: (§1) Compound I(a) was termed CMPD A (LI568-026-02).
(§2) Cells were passaged as required by trypsinization.
(§3) Assay conditions: The effects of the test compound were assessed under long term exposure conditions. Cells were propagated as normal in T25 flasks in complete culture media supplemented with comparatively low concentrations of the compound (0, 1 and 5 μg/ml) for 28 days. At various times post-exposure, changes in proliferation rates were assessed using a standard CIMA assay.
(§4) For the current study, cells that have been exposed to the compound were seeded in 96-well plates and proliferation rates measured over 24 and 72 h periods for comparison to that of similarly aged untreated cells.

[4] = tested on: SH-SY5Y neuroblastoma cells; assay: as above; type: cell-based; settings: for AVERAGE (mean absorbance): SHSY5Y
Procedure: as §1, §2, §3, §4

[5] = tested on: SH-SY5Y neuroblastoma cells; assay: MTT (CIMA) cell proliferation assay, acute and chronic exposure (Example 3); settings: SH-SY5Y
Procedure: as §5
(§9) Cells and cell culture: Proof-of-principle studies in this example focused on two human brain cancer cell lines, namely SH-SY5Y neuroblastoma cells and U373 astroglioma cells. […] Both cells were maintained in (50:50) F12:DMEM medium supplemented with 10% fetal calf serum (FCS) and antibiotics in a humidified, 5% CO2 environment. Cells were passaged as required by trypsinization.
(§10) Assays conditions: The effects of the test compounds were assessed following acute and chronic exposure conditions. […] The test compounds were evaluated over a broad range of concentrations (0, 0.5, 1, 5, 10, 50, 100 and 250 μg/ml) with cells treated with equivalent concentrations of vehicle (DMSO) serving as controls.
(§11) Cell proliferation assay: Cell proliferation was assessed using a standard colorimetric indicator of metabolic activity (CIMA) assay. In this assay, the reduction of yellow tetrazolium salt (MTT) to purple formazan by mitochondrial reductase enzymes in viable cells was evaluated as a measure of metabolic activity to determine the extent of cell proliferation within a culture. The resulting colour change that conferred a change in absorbance was quantified using a spectrophotometer (λ=500-600). Samples were diluted as required to ensure that values obtained with the MTT assay fell within the linear range of the protocol. Qualitative microscopic evaluation of treated cultures was used to determine if overt cytotoxicity was present and to supplement the quantitative CIMA data.

U373 astroglioma cells [6] = assay: as above
Procedure: as §5, §9, §10, §11

[7] = tested on: Influenza B (strain B/Lee/40); assay: Anti-influenza cytopathic effect (CPE) assay in MDCK cells, prophylactic regimen (Example 7); type: cell-based; parameters: key to CPE score: 1: Complete monolayer with few gaps or dead cells; 2: Some gaps in the monolayer; dead cells more evident; 3: Increasing number of gaps in the monolayer concurrent with dead cells; 4: Gaps widely distributed throughout the monolayer and of increasing size; 5: Large holes forming as smaller gaps merge; copious dead cells evident; 6: Monolayer integrity lost. Small islands of attached cells amid predominantly dead cells; settings: for CPE score: Influenza B, MDCK, virus + DMSO control 4
[8] = both acute and chronic regimens

O=CCCCN1C(=O)c2ccccc2C1=O [Compound I(a), 4-(1,3-dioxo-1,3-dihydro-2H-isoindol-2-yl)butanal]
CPE score ([1]; 0.5 μg/ml, virus + DMSO control 3): 1 ^5 | CPE score ([1]; 0.5 μg/ml, virus + DMSO control 4): 4 | CPE score ([1]; 1.0 μg/ml, virus + DMSO control 3): 1 | CPE score ([1]; 1.0 μg/ml, virus + DMSO control 4): 3 | CPE score ([1]; 5.0 μg/ml, virus + DMSO control 3): 1 | CPE score ([1]; 5.0 μg/ml, virus + DMSO control 4): 3 | CPE score ([1]; 10 μg/ml, virus + DMSO control 3): 1 | CPE score ([1]; 10 μg/ml, virus + DMSO control 4): 3 | CPE score ([1]; 25 μg/ml, virus + DMSO control 3): 1 | CPE score ([1]; 25 μg/ml, virus + DMSO control 4): 3 | CPE score ([1]; 50 μg/ml, virus + DMSO control 3): 3 | CPE score ([1]; 50 μg/ml, virus + DMSO control 4): 5 | CPE score ([1]; 100 μg/ml, virus + DMSO control 3): 4 | CPE score ([1]; 100 μg/ml, virus + DMSO control 4): 5 | effect on CPE (summary in words) ([1]; comparatively lower concentrations): mild to moderate reduction in CPE | viability/proliferation [2]: dose-dependent decreases in viability/proliferation | Toxicity (MTT), fold changes relative to vehicle controls (MDCK cells; 24 h exposure, 0.5 μg/ml): 1.09 fold | Toxicity (MTT), fold changes relative to vehicle controls (MDCK cells; 24 h exposure, 1.0 μg/ml): 1.24 fold | Toxicity (MTT), fold changes relative to vehicle controls (MDCK cells; 24 h exposure, 5.0 μg/ml): 1.18 fold | Toxicity (MTT), fold changes relative to vehicle controls (MDCK cells; 24 h exposure, 10 μg/ml): 1.15 fold | Toxicity (MTT), fold changes relative to vehicle controls (MDCK cells; 24 h exposure, 25 μg/ml): 1.06 fold | Toxicity (MTT), fold changes relative to vehicle controls (MDCK cells; 24 h exposure, 50 μg/ml): 1.08 fold | Toxicity (MTT), fold changes relative to vehicle controls (MDCK cells; 24 h exposure, 100 μg/ml): 0.98 fold | Toxicity (MTT), fold changes relative to vehicle controls (MDCK cells; 72 h exposure, 0.5 μg/ml): 1.05 fold | Toxicity (MTT), fold changes relative to vehicle controls (MDCK cells; 72 h exposure, 1.0 μg/ml): 0.99 fold | Toxicity (MTT), fold changes relative to vehicle controls (MDCK cells; 72 h exposure, 5.0 μg/ml): 1.15 fold | Toxicity (MTT), fold changes relative to vehicle controls (MDCK cells; 72 h exposure, 10 μg/ml): 1.01 fold | Toxicity (MTT), fold changes relative to vehicle controls (MDCK cells; 72 h exposure, 25 μg/ml): 0.96 fold | Toxicity (MTT), fold changes relative to vehicle controls (MDCK cells; 72 h exposure, 50 μg/ml, decreases exceeding 25% considered toxic): 0.71^3 fold | Toxicity (MTT), fold changes relative to vehicle controls (MDCK cells; 72 h exposure, 100 μg/ml, decreases exceeding 25% considered toxic): 0.56 fold | cytotoxicity (summary in words) (MDCK cells; higher concentrations (≧25 μg/ml)): toxicity associated with the compound itself | LD50 (NSC34 motor neurons): < 0.25 mg/mL | AVERAGE (mean absorbance) (U373 astroglioma cells [3]; 14 d incubation with 1 μg/ml, 24 h, control 0 μg/ml 0.569): 0.446 | AVERAGE (mean absorbance) (U373 astroglioma cells [3]; 14 d incubation with 5 μg/ml, 24 h, control 0 μg/ml 0.569): 0.437 | AVERAGE (mean absorbance) (U373 astroglioma cells [3]; 21 d incubation with 1 μg/ml, 24 h, control 0 μg/ml 0.617): 0.575 | AVERAGE (mean absorbance) (U373 astroglioma cells [3]; 21 d incubation with 1 μg/ml, 72 h, control 0 μg/ml 0.547): 0.502 | AVERAGE (mean absorbance) (U373 astroglioma cells [3]; 21 d incubation with 5 μg/ml, 24 h, control 0 μg/ml 0.617): 0.539 | AVERAGE (mean absorbance) (U373 astroglioma cells [3]; 21 d incubation with 5 μg/ml, 72 h, control 0 μg/ml 0.547): 0.478 | AVERAGE (mean absorbance) (U373 astroglioma cells [3]; 28 d incubation with 1 μg/ml, 24 h, control 0 μg/ml 0.567): 0.510 | AVERAGE (mean absorbance) (U373 astroglioma cells [3]; 28 d incubation with 1 μg/ml, 72 h, control 0 μg/ml 0.598): 0.507 | AVERAGE (mean absorbance) (U373 astroglioma cells [3]; 28 d incubation with 5 μg/ml, 24 h, control 0 μg/ml 0.567): 0.461 | AVERAGE (mean absorbance) (U373 astroglioma cells [3]; 28 d incubation with 5 μg/ml, 72 h, control 0 μg/ml 0.598): 0.514 | average decrease in activity (U373 astroglioma cells [3]; long term exposure up to 28 days, 1 and 5 μg/ml): approximately 20% | average decrease in activity ([4]; SH-SY5Y, long term exposure up to 28 days, 1 and 5 μg/ml): approximately 20% | AVERAGE (mean absorbance) ([4]; 14 d incubation with 1 μg/ml, 24 h, control 0 μg/ml 0.492): 0.508 | AVERAGE (mean absorbance) ([4]; 14 d incubation with 5 μg/ml, 24 h, control 0 μg/ml 0.492): 0.388 | AVERAGE (mean absorbance) ([4]; 21 d incubation with 1 μg/ml, 24 h, control 0 μg/ml 0.307): 0.311 | AVERAGE (mean absorbance) ([4]; 21 d incubation with 1 μg/ml, 72 h, control 0 μg/ml 0.300): 0.268 | AVERAGE (mean absorbance) ([4]; 21 d incubation with 5 μg/ml, 24 h, control 0 μg/ml 0.307): 0.277 | AVERAGE (mean absorbance) ([4]; 21 d incubation with 5 μg/ml, 72 h, control 0 μg/ml 0.300): 0.269 | AVERAGE (mean absorbance) ([4]; 28 d incubation with 1 μg/ml, 24 h, control 0 μg/ml 0.601): 0.597 | AVERAGE (mean absorbance) ([4]; 28 d incubation with 1 μg/ml, 72 h, control 0 μg/ml 0.489): 0.389 | AVERAGE (mean absorbance) ([4]; 28 d incubation with 5 μg/ml, 24 h, control 0 μg/ml 0.601): 0.531 | AVERAGE (mean absorbance) ([4]; 28 d incubation with 5 μg/ml, 72 h, control 0 μg/ml 0.489): 0.423 | decrease in MTT activity ([5]; acute treatment (24 h), 0.25 mg/ml): approximately 30% | change in MTT activity ([5]; acute treatment (24 h), other concentrations evaluated (below 0.25 mg/ml)): No significant change in MTT activity | LD50 [5, 8]: exceeds 0.25 mg/ml | decrease in MTT activity ([5]; chronic treatment (72 h), 50 μg/ml): 25% | decrease in MTT activity ([5]; chronic treatment (72 h), 100 μg/ml): 25% | decrease in MTT activity ([5]; chronic treatment (72 h), 250 μg/ml): 25% | overt cell death / reductions in MTT activity (U373 astroglioma cells [6]; acute (24 h) and chronic (72 h) treatment, 0.5-250 μg/ml): Neither overt cell death nor significant reductions in MTT activity | LD50 (U373 astroglioma cells [6]; [8]): exceeds 0.25 mg/ml | effect on CPE (summary in words) ([7]; Influenza B infection): mild to moderate reduction in CPE | CPE score ([7]; 24 hpi, 0.5 μg/ml): 3 | CPE score ([7]; 24 hpi, 1.0 μg/ml): 3 | CPE score ([7]; 24 hpi, 5.0 μg/ml): 2 | CPE score ([7]; 24 hpi, 10 μg/ml): 2 | CPE score ([7]; 24 hpi, 25 μg/ml): 4 | CPE score ([7]; 24 hpi, 50 μg/ml): 4 | CPE score ([7]; 24 hpi, 100 μg/ml): 5 | CPE score ([7]; 48 hpi, 0.5 μg/ml): 3 | CPE score ([7]; 48 hpi, 1.0 μg/ml): 3 | CPE score ([7]; 48 hpi, 5.0 μg/ml): 3 | CPE score ([7]; 48 hpi, 10 μg/ml): 3 | CPE score ([7]; 48 hpi, 25 μg/ml): 4 | CPE score ([7]; 48 hpi, 50 μg/ml): 5 | CPE score ([7]; 48 hpi, 100 μg/ml): 6
